Measured values published in US12708665B2, “Anti-IL-1β antibody therapy in arrhythmogenic cardiomyopathy (ACM)” (Beth Israel Deaconess Medical Center, Inc., priority 2019, dated 2026).
“Also recorded” adds a separate entry of the source.

Test system: Dsg2^mut/mut mice
Experiment: Cytokine arrays, cytokine expression in hearts of Dsg2^mut/mut mice treated with Bay 11-7082
Assay type: in vivo
From the text: Quantitative data (mean±SEM; n=5) for expression of selected cytokines in hearts of vehicle-treated wildtype (WT) mice, Dsg2^mut/mut mice and Dsg2^mut/mut mice treated with Bay 11-7082. * P<0.05 compared to WT; †P<0.05 for treated vs. untreated Dsg2^mut/mut mice.
To characterize production of chemical mediators of the immune response in ACM, we used arrays to measure 111 different cytokines in the hearts of Dsg2^mut/mut mice and compared the amounts to those measured in the hearts of WT mice and Dsg2^mut/mut mice treated with Bay 11-7082. We observed substantial expression of multiple cytokines in the hearts of Dsg2^mut/mut mice. […] Powerful inflammatory mediators were expressed in Dsg2^mut/mut hearts including IL-1β (up by ~13-fold compared to WT hearts), IFNγ (~5-fold), IL-12 (~6-fold) and TNFα (~2-fold). […] Finally, there were increases in some molecules that fulfill anti-inflammatory roles such as IL-1Ra (up by ~4-fold).

[1] = cytokine expression level, mouse heart

Cc1ccc(S(=O)(=O)/C=C/C#N)cc1 [Bay11-7082]
IL-1β (IL-1F2), Dsg2^mut/mut (Bay11-7082) vs Dsg2^mut/mut [1]: <1 | IL-1β (IL-1F2), Dsg2^mut/mut (Bay11-7082) vs WT [1]: 6-10 | IL-2, Dsg2^mut/mut (Bay11-7082) vs Dsg2^mut/mut [1]: <1 | IL-2, Dsg2^mut/mut (Bay11-7082) vs WT [1]: <1 | IL-3, Dsg2^mut/mut (Bay11-7082) vs Dsg2^mut/mut [1]: <1 | IL-3, Dsg2^mut/mut (Bay11-7082) vs WT [1]: <1 | IL-4, Dsg2^mut/mut (Bay11-7082) vs Dsg2^mut/mut [1]: <1 | IL-4, Dsg2^mut/mut (Bay11-7082) vs WT [1]: <1 | IL-5, Dsg2^mut/mut (Bay11-7082) vs Dsg2^mut/mut [1]: <1 | IL-5, Dsg2^mut/mut (Bay11-7082) vs WT [1]: <1 | IL-6, Dsg2^mut/mut (Bay11-7082) vs Dsg2^mut/mut [1]: <1 | IL-6, Dsg2^mut/mut (Bay11-7082) vs WT [1]: <1 | IL-7, Dsg2^mut/mut (Bay11-7082) vs Dsg2^mut/mut [1]: <1 | IL-7, Dsg2^mut/mut (Bay11-7082) vs WT [1]: <1 | IL-10, Dsg2^mut/mut (Bay11-7082) vs Dsg2^mut/mut [1]: <1 | IL-10, Dsg2^mut/mut (Bay11-7082) vs WT [1]: <1 | IL-11, Dsg2^mut/mut (Bay11-7082) vs Dsg2^mut/mut [1]: <1 | IL-11, Dsg2^mut/mut (Bay11-7082) vs WT [1]: <1 | IL-12 p40, Dsg2^mut/mut (Bay11-7082) vs Dsg2^mut/mut [1]: <1 | IL-12 p40, Dsg2^mut/mut (Bay11-7082) vs WT [1]: 1-2 | IL-13, Dsg2^mut/mut (Bay11-7082) vs Dsg2^mut/mut [1]: <1 | IL-13, Dsg2^mut/mut (Bay11-7082) vs WT [1]: 1-2 | IL-15, Dsg2^mut/mut (Bay11-7082) vs Dsg2^mut/mut [1]: <1 | IL-15, Dsg2^mut/mut (Bay11-7082) vs WT [1]: 2-4 | IL-17a, Dsg2^mut/mut (Bay11-7082) vs Dsg2^mut/mut [1]: <1 | IL-17a, Dsg2^mut/mut (Bay11-7082) vs WT [1]: <1 | IL-22, Dsg2^mut/mut (Bay11-7082) vs Dsg2^mut/mut [1]: <1 | IL-22, Dsg2^mut/mut (Bay11-7082) vs WT [1]: <1 | IL-23, Dsg2^mut/mut (Bay11-7082) vs Dsg2^mut/mut [1]: <1 | IL-23, Dsg2^mut/mut (Bay11-7082) vs WT [1]: <1 | IL-27 p28, Dsg2^mut/mut (Bay11-7082) vs Dsg2^mut/mut [1]: <1 | IL-27 p28, Dsg2^mut/mut (Bay11-7082) vs WT [1]: <1 | IL-28A/B, Dsg2^mut/mut (Bay11-7082) vs Dsg2^mut/mut [1]: <1 | IL-28A/B, Dsg2^mut/mut (Bay11-7082) vs WT [1]: 1-2 | IL-33, Dsg2^mut/mut (Bay11-7082) vs Dsg2^mut/mut [1]: <1 | IL-33, Dsg2^mut/mut (Bay11-7082) vs WT [1]: 2-4 | IP-10 (CXL10/CRG-2), Dsg2^mut/mut (Bay11-7082) vs Dsg2^mut/mut [1]: <1 | IP-10 (CXL10/CRG-2), Dsg2^mut/mut (Bay11-7082) vs WT [1]: <1 | KC (CXCL1), Dsg2^mut/mut (Bay11-7082) vs Dsg2^mut/mut [1]: <1 | KC (CXCL1), Dsg2^mut/mut (Bay11-7082) vs WT [1]: <1 | LDL R, Dsg2^mut/mut (Bay11-7082) vs Dsg2^mut/mut [1]: 1-2 | LDL R, Dsg2^mut/mut (Bay11-7082) vs WT [1]: 1-2 | LIF, Dsg2^mut/mut (Bay11-7082) vs Dsg2^mut/mut [1]: <1 | LIF, Dsg2^mut/mut (Bay11-7082) vs WT [1]: <1 | LIX, Dsg2^mut/mut (Bay11-7082) vs Dsg2^mut/mut [1]: <1 | LIX, Dsg2^mut/mut (Bay11-7082) vs WT [1]: >10 | Leptin, Dsg2^mut/mut (Bay11-7082) vs Dsg2^mut/mut [1]: <1 | Leptin, Dsg2^mut/mut (Bay11-7082) vs WT [1]: 1-2 | Lipocalin-2/NGAL, Dsg2^mut/mut (Bay11-7082) vs Dsg2^mut/mut [1]: <1 | Lipocalin-2/NGAL, Dsg2^mut/mut (Bay11-7082) vs WT [1]: <1 | M-CSF, Dsg2^mut/mut (Bay11-7082) vs Dsg2^mut/mut [1]: 1-2 | M-CSF, Dsg2^mut/mut (Bay11-7082) vs WT [1]: >20 | MCP-5 (CCL12), Dsg2^mut/mut (Bay11-7082) vs Dsg2^mut/mut [1]: <1 | MCP-5 (CCL12), Dsg2^mut/mut (Bay11-7082) vs WT [1]: <1 | MIP-2 (CXCL2), Dsg2^mut/mut (Bay11-7082) vs Dsg2^mut/mut [1]: <1 | MIP-2 (CXCL2), Dsg2^mut/mut (Bay11-7082) vs WT [1]: <1 | MMP-2, Dsg2^mut/mut (Bay11-7082) vs Dsg2^mut/mut [1]: 1-2 | MMP-2, Dsg2^mut/mut (Bay11-7082) vs WT [1]: 4-6 | MMP-3, Dsg2^mut/mut (Bay11-7082) vs Dsg2^mut/mut [1]: 1-2 | MMP-3, Dsg2^mut/mut (Bay11-7082) vs WT [1]: <1 | MMP-9, Dsg2^mut/mut (Bay11-7082) vs Dsg2^mut/mut [1]: <1 | MMP-9, Dsg2^mut/mut (Bay11-7082) vs WT [1]: <1 | Myeloperoxidase, Dsg2^mut/mut (Bay11-7082) vs Dsg2^mut/mut [1]: <1 | Myeloperoxidase, Dsg2^mut/mut (Bay11-7082) vs WT [1]: 2-4 | Osteopontin (OPN), Dsg2^mut/mut (Bay11-7082) vs Dsg2^mut/mut [1]: <1 | Osteopontin (OPN), Dsg2^mut/mut (Bay11-7082) vs WT [1]: 4-6 | Osteoprotegerin/TNFRSF11B, Dsg2^mut/mut (Bay11-7082) vs Dsg2^mut/mut [1]: <1 | Osteoprotegerin/TNFRSF11B, Dsg2^mut/mut (Bay11-7082) vs WT [1]: <1 | P-Selectin/CD62P, Dsg2^mut/mut (Bay11-7082) vs Dsg2^mut/mut [1]: <1 | P-Selectin/CD62P, Dsg2^mut/mut (Bay11-7082) vs WT [1]: >10 | PD-EGF/Thymidine phosphorylase, Dsg2^mut/mut (Bay11-7082) vs Dsg2^mut/mut [1]: <1 | PD-EGF/Thymidine phosphorylase, Dsg2^mut/mut (Bay11-7082) vs WT [1]: <1 | PDGF-BB, Dsg2^mut/mut (Bay11-7082) vs Dsg2^mut/mut [1]: <1 | PDGF-BB, Dsg2^mut/mut (Bay11-7082) vs WT [1]: 1-2 | Pentraxin 2/SAP, Dsg2^mut/mut (Bay11-7082) vs Dsg2^mut/mut [1]: <1 | Pentraxin 2/SAP, Dsg2^mut/mut (Bay11-7082) vs WT [1]: 1-2 | Pentraxin 3/TSG-14, Dsg2^mut/mut (Bay11-7082) vs Dsg2^mut/mut [1]: <1 | Pentraxin 3/TSG-14, Dsg2^mut/mut (Bay11-7082) vs WT [1]: <1 | Periostin/OSF-2, Dsg2^mut/mut (Bay11-7082) vs Dsg2^mut/mut [1]: <1 | Periostin/OSF-2, Dsg2^mut/mut (Bay11-7082) vs WT [1]: <1 | Pref-1/DLK-1/FA1, Dsg2^mut/mut (Bay11-7082) vs Dsg2^mut/mut [1]: <1 | Pref-1/DLK-1/FA1, Dsg2^mut/mut (Bay11-7082) vs WT [1]: 6-10 | Proliferin, Dsg2^mut/mut (Bay11-7082) vs Dsg2^mut/mut [1]: <1 | Proliferin, Dsg2^mut/mut (Bay11-7082) vs WT [1]: 6-10 | Proprotein Convertase 9/PCSK9, Dsg2^mut/mut (Bay11-7082) vs Dsg2^mut/mut [1]: 1-2 | Proprotein Convertase 9/PCSK9, Dsg2^mut/mut (Bay11-7082) vs WT [1]: <1 | RAGE, Dsg2^mut/mut (Bay11-7082) vs Dsg2^mut/mut [1]: <1 | RAGE, Dsg2^mut/mut (Bay11-7082) vs WT [1]: <1 | RBP4, Dsg2^mut/mut (Bay11-7082) vs Dsg2^mut/mut [1]: <1 | RBP4, Dsg2^mut/mut (Bay11-7082) vs WT [1]: 1-2 | Reg3G, Dsg2^mut/mut (Bay11-7082) vs Dsg2^mut/mut [1]: <1 | Reg3G, Dsg2^mut/mut (Bay11-7082) vs WT [1]: 6-10 | Resistin, Dsg2^mut/mut (Bay11-7082) vs Dsg2^mut/mut [1]: <1 | Resistin, Dsg2^mut/mut (Bay11-7082) vs WT [1]: 2-4 | Serpin E1/PAI-1, Dsg2^mut/mut (Bay11-7082) vs Dsg2^mut/mut [1]: <1 | Serpin E1/PAI-1, Dsg2^mut/mut (Bay11-7082) vs WT [1]: 6-10 | Serpin F1/PEDF, Dsg2^mut/mut (Bay11-7082) vs Dsg2^mut/mut [1]: <1 | Serpin F1/PEDF, Dsg2^mut/mut (Bay11-7082) vs WT [1]: <1 | TIM-1/KIM-1/HAVCR, Dsg2^mut/mut (Bay11-7082) vs Dsg2^mut/mut [1]: 1-2 | TIM-1/KIM-1/HAVCR, Dsg2^mut/mut (Bay11-7082) vs WT [1]: <1 | TNF-α, Dsg2^mut/mut (Bay11-7082) vs Dsg2^mut/mut [1]: <1 | TNF-α, Dsg2^mut/mut (Bay11-7082) vs WT [1]: 1-2 | Thrombopoeitin, Dsg2^mut/mut (Bay11-7082) vs Dsg2^mut/mut [1]: 1-2 | Thrombopoeitin, Dsg2^mut/mut (Bay11-7082) vs WT [1]: <1 | VCAM-1/CD106, Dsg2^mut/mut (Bay11-7082) vs Dsg2^mut/mut [1]: 1-2 | VCAM-1/CD106, Dsg2^mut/mut (Bay11-7082) vs WT [1]: 6-10 | VEGF, Dsg2^mut/mut (Bay11-7082) vs Dsg2^mut/mut [1]: 1-2 | VEGF, Dsg2^mut/mut (Bay11-7082) vs WT [1]: <1 | WISP-1/CCN4, Dsg2^mut/mut (Bay11-7082) vs Dsg2^mut/mut [1]: <1 | WISP-1/CCN4, Dsg2^mut/mut (Bay11-7082) vs WT [1]: <1 | sICAM-1 (CD54), Dsg2^mut/mut (Bay11-7082) vs Dsg2^mut/mut [1]: <1 | sICAM-1 (CD54), Dsg2^mut/mut (Bay11-7082) vs WT [1]: 1-2 | increased expression of cytokines in Dsg2^mut/mut hearts (treated vs untreated Dsg2^mut/mut mice, FIG. 1, result in words): attenuation; also recorded: blunted or fully normalized
